Measurements from ChEMBL document CHEMBL1126212, “A peptide-acridine conjugate with ribonucleolytic activity” (1992).
Peptide text beside a SMILES is read from it. * marks the point of attachment. Acridine9carbonyl = O=C(c1c2ccccc2nc2ccccc12)*

system: Escherichia coli; assay: Evaluated for the ribosomal RNA cleavage using Gel-permeation analysis as difference in retention time; assay type: functional

| SMILES | Difference in retention time |
| --- | --- |
| Cc1ccc2nc3ccccc3c(C=O)c2c1 | 0.3 min |
| N[C@@H](Cc1c[nH]cn1)C(=O)N1CCC[C@H]1C(=O)N[C@@H](Cc1c[nH]cn1)C(=O)N[C@@H](CCCCNC(=O)c1c2ccccc2nc2ccccc12)C(=O)O (H-HPHK(Acridine9carbonyl)-OH) | 3.4 min |
| NCCCC[C@H](NC(=O)[C@H](Cc1c[nH]cn1)NC(=O)[C@@H]1CCCN1C(=O)[C@@H](N)Cc1c[nH]cn1)C(N)=O (H-HPHK-NH2) | 0.2 min |
